Assay results taken from article PMC13108699, “Mass balance and metabolite profiling of ^14C-Zalunfiban in humans following single-dose subcutaneous administration” (Xenobiotica; the fate of foreign compounds in biological …, 2025).
Values joined by “and” are separate entries in the source; they are usually repeats but may differ in a detail not shown here. Identical values can stand only once.

Tests used:
[1] = Metabolite profiling of pooled whole blood, urine and faeces by LC radiochromatograms with AMS; assay type: in vivo, human
Procedure: For metabolite profiling in whole blood, urine, and faeces, LC-MS/MS followed by AMS was used. The HPLC system included a 1290 Infinity Sampler, Binary Pump, and thermostat (Agilent, UK). The chromatographic method used an aqueous formic acid (MPA)/ammonium acetate:acetonitrile:methanol (MPB) gradient and a Scherzo SS-C18 HPLC column at a temperature of 40 °C with injection volumes of 50–200 microliters. The gradient was set at 90% MAP and 10% MPB. The mass spectrometer was a Q-Exactive system (Thermo Fisher Scientific, UK) and the AMS a single stage NEC SSAMS-250.
Single whole blood, faeces, and urine pools were created across subjects and radioactive regions representing 10% or more of the circulating radioactivity were analysed (e.g. 10% or more of the circulating radioactivity in whole blood or accounting for 10% or more of the administered radioactivity/dose in urine and faeces), To create the pool, an individual subject AUC pool was prepared, and a constant proportion of each subject pool was taken to create one cross-subject pool. The whole blood sample pool included samples from hours 0–144, the urine sample pool included samples from hours 0–48, and the faeces pool from hours 0–192.
Whole blood, faeces, and urine radiochromatograms were generated for each sample by collecting HPLC fractions at intervals of 2 (30 s) or 4 (15 s) per minute over the run time of 110 min.
Radiochromatograms were generated from AMS data using the LAURA V6 software (LabLogic, Sheffield, UK). Regions of interest were quantified and provisionally identified where possible by assignment of observed peaks in each radiochromatogram to either parent zalunfiban or M1 by retention time matching, with corresponding ^12C-reference standards obtained via LC-UV.
Assignment of parent and metabolites was made by matching retention times with synthesised standards at wavelengths of 210, 230, 254, 270, and 300 nm, using liquid chromatography ultraviolet chromatography (LC-UV).
For extraction of ^14C-zalunfiban from whole blood, weighed aliquots in microcentrifuge tubes were processed with vortex mixing and centrifugation. The supernatant was then harvested and the process repeated with the bullet material in the original tube using acetonitrile and then methanol. The combined aliquots then underwent AMS analysis to determine the extraction recovery. Once optimised, the final combined supernatant was dried under N2 gas at 40 °C and reconstituted with 1 mL methanol:water (20:80, v/v), with vortex mixing and sonication. This was followed by analysis by LC. The radioactivity extraction recovery for whole blood (AUC0–144h) was 54.5%,
For extraction of ^14C-zalunfiban from homogenised faeces, weighed aliquots in microcentrifuge tubes were processed with vortex mixing and centrifugation, and then diluted with acetonitrile, followed by additional mixing, centrifugation, and repeat extraction with methanol:water until optimised. Once optimised, the final combined supernatant was dried under N2 gas at 40 °C and reconstituted with methanol, followed by water, followed by vortex mixing, followed by analysis by LC. The radioactivity extraction recovery for faeces (0–192 h) was 100%.
Urine was not subjected to extraction. An aliquot was dispensed into an LC vial prior to analysis.

Water solubility = assay type: physicochemical
platelet aggregation = assay: In vitro inhibition of ADP-induced platelet aggregation in platelet-rich plasma; assay type: cell-based, human
Procedure: Ten mL of whole blood was collected from healthy human donors via venipuncture and treated with an anticoagulant (D-phenylalanyl-prolyl-arginyl chloromethyl ketone). From this, platelet-rich plasma (PRP) was prepared by centrifuging whole blood at room temperature at 650 × g for 4 min. PRP was removed and standardised to a uniform platelet concentration of 3.0 × 10^5/μL, using platelet poor plasma as a diluent, where necessary. […] Platelet aggregation was measured using an aggregometer (PAP-8E C/N 106075; Bio/Data Corp, Horsham PA). For M1 a range of concentrations was tested to produce a single fitted curve, and the Levenberg-Marquardt approach was used to calculate IC50 values.

Lipophilicity = assay type: physicochemical

Percentage of dose excreted in urine ([1]; 0–48 h): 52.98% and 53.0%
Percentage of total radioactivity in urine ([1]; 0–48 h cross-participant pooled sample): 64.1%
Percentage of dose excreted in faeces ([1]; 0–192 h): 2.87%
Percentage of total radioactivity in faeces ([1]; 0–192 h pooled sample): 20.8%
Percentage of total circulating radioactivity in whole blood ([1]; AUC0–144 cross-pooled whole blood extract): 24.4%
Radiochromatogram peak, faeces extract ([1]; male, human, in vivo): 20.83 %ROI
solubility (Water solubility): < 0.01 µg/mL
IC50 (platelet aggregation; Homo sapiens, Platelet, 20 min, PRP, 20 min at 22°C, ADP-initiated aggregation): 25.5 ± 3.5 µM
Lipophilicity compared with zalunfiban (Lipophilicity): more lipophilic than zalunfiban
SMILES: Nc1cncc(-c2nn3c(=O)cc(N4CCNCC4)nc3s2)c1 [M1, des-gly-zalunfiban]
Antiplatelet activity relative to zalunfiban (platelet aggregation; from IC50 values): < 1%
